Reference: patent US8802597B2, “Herbicidal pyrimidines” (E I du Pont de Nemours and Company, priority 2003, dated 2014)
Like-named read-outs stand apart in the source and are kept apart here.

Assays:
Assay type in all cases: in vivo
[1] = test system: chickweed (Stellaria media); assay: Test C postemergence; conditions: for Plant response rating, Chickweed: scale 0 to 100
Procedure, shortened: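 Test compounds, formulated in a non-phytotoxic solvent mix with surfactant, were applied to freshly planted seeds and, at the same time, to emerged plants at 1- to 4-leaf stage (2 to 18 cm). After 12 to 14 days in the greenhouse, response was scored visually versus controls, 0 = no effect, 100 = complete control.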

[2] = test system: cocklebur (Xanthium strumarium); assay: Test C pre/postemergence; conditions: for pest or weed control at 62 g/ha / pest or weed control at 125 g/ha / pest or weed control at 250 g/ha / pest or weed control at 500 g/ha: Xanthium strumarium
Text: (§1) Seeds or nutlets of plant species selected from bermudagrass (Cynodon dactylon), Surinam grass (Brachiaria decumbens), cocklebur (Xanthium strumarium), corn (Zea mays), crabgrass (Digitaria sanguinalis), woolly cupgrass (Eriochloa villosa), giant foxtail (Setaria faberii), goosegrass (Eleusine indica), johnsongrass (Sorghum halepense), kochia (Kochia scoparia), lambsquarters (Chenopodium album), morningglory (Ipomoea coccinea), eastern black nightshade (Solanum ptycanthum), yellow nutsedge (Cyperus esculentus), pigweed (Amaranthus retroflexus), common ragweed (Ambrosia elatior), soybean (Glycine max), common (oilseed) sunflower (Helianthus annuus), and velvetleaf (Abutilon theophrasti) were planted and treated preemergence with test chemicals formulated in a non-phytotoxic solvent mixture which included a surfactant.
(§2) At the same time, plants selected from these crop and weed species and also winter barley (Hordeum vulgare), blackgrass (Alopecurus myosuroides), canarygrass (Phalaris minor), chickweed (Stellaria media), downy brome (Bromus tectorum), green foxtail (Setaria viridis), Italian ryegrass (Lolium multiflorum), wheat (Triticum aestivum), wild oat (Avena fatua) and windgrass (Apera spica-venti) were treated with postemergence applications of some of the test chemicals formulated in the same manner. Plants ranged in height from 2 to 18 cm (1- to 4-leaf stage) for postemergence treatments. Plant species in the flooded paddy test consisted of rice (Oryza sativa), umbrella sedge (Cyperus difformis), duck salad (Heteranthera limosa) and barnyardgrass (Echinochloa crus-galli) grown to the 2-leaf stage for testing. Treated plants and controls were maintained in a greenhouse for 12 to 14 days, after which time all species were compared to controls and visually evaluated. Plant response ratings, summarized in Table C, are based on a scale of 0 to 100 where 0 is no effect and 100 is complete control. A dash (-) response means no test result.

[3] = test system: lambsquarters (Chenopodium album); assay: Test C pre/postemergence; conditions: for pest or weed control at 62 g/ha / pest or weed control at 125 g/ha / pest or weed control at 250 g/ha / pest or weed control at 500 g/ha: Chenopodium album
Text: as §1, §2

[4] = test system: corn (Zea mays); assay: Test C pre/postemergence; conditions: for Corn plant response rating (crop injury, 0 = no effect, 100 = complete kill) at 62 g/ha / Corn plant response rating (crop injury, 0 = no effect, 100 = complete kill) at 125 g/ha / Corn plant response rating (crop injury, 0 = no effect, 100 = complete kill) at 250 g/ha / Corn plant response rating (crop injury, 0 = no effect, 100 = complete kill) at 500 g/ha: Zea mays
Text: as §1, §2

[5] = test system: common ragweed (Ambrosia elatior); assay: Test C pre/postemergence; conditions: for pest or weed control at 62 g/ha / pest or weed control at 125 g/ha / pest or weed control at 250 g/ha / pest or weed control at 500 g/ha: Ambrosia artemisiifolia
Text: as §1, §2

[6] = Postemergence, 62 g ai/ha, scale 0 to 100 (0 no effect, 100 complete control)
[7] = Postemergence, 125 g ai/ha, scale 0 to 100 (0 no effect, 100 complete control)
[8] = Postemergence, 250 g ai/ha, scale 0 to 100
[9] = Postemergence, 500 g ai/ha, scale 0 to 100

SMILES: Nc1nc(C2CC2)nc(C(=O)OCc2ccccc2)c1Br [Compound 22, phenylmethyl 6-amino-5-bromo-2-cyclopropyl-4-pyrimidinecarboxylate]
- pest or weed control at 62 g/ha ([1]; Stellaria media, post-emergence, 62 g ai/ha, scale 0 to 100 (0 no effect, 100 complete control), read-out: Chickweed plant response rating): 30%
- pest or weed control at 125 g/ha ([1]; Stellaria media, post-emergence, 125 g ai/ha, scale 0 to 100 (0 no effect, 100 complete control), read-out: Chickweed plant response rating): 60%
- pest or weed control at 250 g/ha ([1]; Stellaria media, post-emergence, 250 g ai/ha, scale 0 to 100, read-out: Plant response rating, Chickweed): 85%
- pest or weed control at 500 g/ha ([1]; Stellaria media, post-emergence, 500 g ai/ha, scale 0 to 100, read-out: Plant response rating, Chickweed): 90%
- pest or weed control at 62 g/ha ([2]; post-emergence, Postemergence, 62 g ai/ha, scale 0 to 100 (0 no effect, 100 complete control), read-out: Cocklebur plant response rating): 90%
- pest or weed control at 125 g/ha ([2]; post-emergence, Postemergence, 125 g ai/ha, scale 0 to 100 (0 no effect, 100 complete control), read-out: Cocklebur plant response rating): 90%
- pest or weed control at 250 g/ha ([2]; post-emergence, Postemergence, 250 g ai/ha, scale 0 to 100, read-out: Plant response rating, Cocklebur): 100%
- pest or weed control at 500 g/ha ([2]; post-emergence, Postemergence, 500 g ai/ha, scale 0 to 100, read-out: Plant response rating, Cocklebur): 100%
- pest or weed control at 62 g/ha ([2]; pre-emergence, Preemergence, 62 g ai/ha, scale 0 to 100, 0 no effect, 100 complete control, read-out: Plant response rating, Cocklebur): 90%
- pest or weed control at 125 g/ha ([2]; pre-emergence, Preemergence, 125 g ai/ha, scale 0 to 100, read-out: Plant response rating, Cocklebur): 95%
- pest or weed control at 250 g/ha ([2]; pre-emergence, Preemergence, 250 g ai/ha, scale 0 to 100, read-out: Plant response rating, Cocklebur): 100%
- pest or weed control at 500 g/ha ([2]; pre-emergence, Preemergence, 500 g ai/ha, scale 0 to 100, read-out: Plant response rating, Cocklebur): 100%
- pest or weed control at 62 g/ha ([3]; post-emergence, Postemergence, 62 g ai/ha, scale 0 to 100 (0 no effect, 100 complete control), read-out: Lambsquarters plant response rating): 90%
- pest or weed control at 125 g/ha ([3]; post-emergence, Postemergence, 125 g ai/ha, scale 0 to 100 (0 no effect, 100 complete control), read-out: Lambsquarters plant response rating): 95%
- pest or weed control at 250 g/ha ([3]; post-emergence, Postemergence, 250 g ai/ha, scale 0 to 100, read-out: Plant response rating, Lambsquarters): 95%
- pest or weed control at 500 g/ha ([3]; post-emergence, Postemergence, 500 g ai/ha, scale 0 to 100, read-out: Plant response rating, Lambsquarters): 95%
- pest or weed control at 62 g/ha ([3]; pre-emergence, Preemergence, 62 g ai/ha, scale 0 to 100, 0 no effect, 100 complete control, read-out: Plant response rating, Lambsquarters): 100%
- pest or weed control at 125 g/ha ([3]; pre-emergence, Preemergence, 125 g ai/ha, scale 0 to 100, read-out: Plant response rating, Lambsquarters): 100%
- pest or weed control at 250 g/ha ([3]; pre-emergence, Preemergence, 250 g ai/ha, scale 0 to 100, read-out: Plant response rating, Lambsquarters): 100%
- pest or weed control at 500 g/ha ([3]; pre-emergence, Preemergence, 500 g ai/ha, scale 0 to 100, read-out: Plant response rating, Lambsquarters): 100%
- Corn plant response rating (crop injury, 0 = no effect, 100 = complete kill) at 62 g/ha ([4]; post-emergence, Postemergence, 62 g ai/ha, scale 0 to 100 (0 no effect, 100 complete control), read-out: Corn plant response rating): 30%
- Corn plant response rating (crop injury, 0 = no effect, 100 = complete kill) at 125 g/ha ([4]; post-emergence, Postemergence, 125 g ai/ha, scale 0 to 100 (0 no effect, 100 complete control), read-out: Corn plant response rating): 40%
- Corn plant response rating (crop injury, 0 = no effect, 100 = complete kill) at 250 g/ha ([4]; post-emergence, Postemergence, 250 g ai/ha, scale 0 to 100): 60%
- Corn plant response rating (crop injury, 0 = no effect, 100 = complete kill) at 500 g/ha ([4]; post-emergence, Postemergence, 500 g ai/ha, scale 0 to 100): 65%
- Corn plant response rating (crop injury, 0 = no effect, 100 = complete kill) at 62 g/ha ([4]; pre-emergence, Preemergence, 62 g ai/ha, scale 0 to 100, 0 no effect, 100 complete control, read-out: Plant response rating, Corn): 40%
- Corn plant response rating (crop injury, 0 = no effect, 100 = complete kill) at 125 g/ha ([4]; pre-emergence, Preemergence, 125 g ai/ha, scale 0 to 100, read-out: Plant response rating, Corn): 50%
- Corn plant response rating (crop injury, 0 = no effect, 100 = complete kill) at 250 g/ha ([4]; pre-emergence, Preemergence, 250 g ai/ha, scale 0 to 100): 65%
- Corn plant response rating (crop injury, 0 = no effect, 100 = complete kill) at 500 g/ha ([4]; pre-emergence, Preemergence, 500 g ai/ha, scale 0 to 100): 65%
- pest or weed control at 62 g/ha ([5]; post-emergence, Postemergence, 62 g ai/ha, scale 0 to 100 (0 no effect, 100 complete control), read-out: Ragweed plant response rating): 80%
- pest or weed control at 125 g/ha ([5]; post-emergence, Postemergence, 125 g ai/ha, scale 0 to 100 (0 no effect, 100 complete control), read-out: Ragweed plant response rating): 85%
- pest or weed control at 250 g/ha ([5]; post-emergence, Postemergence, 250 g ai/ha, scale 0 to 100, read-out: Plant response rating, Ragweed): 90%
- pest or weed control at 500 g/ha ([5]; post-emergence, Postemergence, 500 g ai/ha, scale 0 to 100, read-out: Plant response rating, Ragweed): 90%
- pest or weed control at 62 g/ha ([5]; pre-emergence, Preemergence, 62 g ai/ha, scale 0 to 100, 0 no effect, 100 complete control, read-out: Plant response rating, Ragweed): 90%
- pest or weed control at 125 g/ha ([5]; pre-emergence, Preemergence, 125 g ai/ha, scale 0 to 100, read-out: Plant response rating, Ragweed): 100%
- pest or weed control at 250 g/ha ([5]; pre-emergence, Preemergence, 250 g ai/ha, scale 0 to 100, read-out: Plant response rating, Ragweed): 100%
- pest or weed control at 500 g/ha ([5]; pre-emergence, Preemergence, 500 g ai/ha, scale 0 to 100, read-out: Plant response rating, Ragweed): 100%

SMILES: CCOC(=O)c1nc(-c2ccc(Cl)cc2)nc(N)c1Br [Compound 37]
- Chickweed plant response rating ([1]; 62 g ai/ha, scale 0 to 100 (0 no effect, 100 complete control)): 0
- Chickweed plant response rating ([1]; 125 g ai/ha, scale 0 to 100 (0 no effect, 100 complete control)): 0
- Plant response rating, Chickweed ([1]; 250 g ai/ha): 0
- Plant response rating, Chickweed ([1]; 500 g ai/ha): 0
- Cocklebur plant response rating [2, 6]: 0
- Cocklebur plant response rating [2, 7]: 95
- Plant response rating, Cocklebur [2, 8]: 95
- Plant response rating, Cocklebur [2, 9]: 95
- Lambsquarters plant response rating [3, 6]: 0
- Lambsquarters plant response rating [3, 7]: 95
- Plant response rating, Lambsquarters [3, 8]: 95
- Plant response rating, Lambsquarters [3, 9]: 95
- Corn plant response rating [4, 6]: 0
- Corn plant response rating [4, 7]: 10
- Plant response rating, Corn [4, 8]: 15
- Plant response rating, Corn [4, 9]: 25
- Ragweed plant response rating [5, 6]: 0
- Ragweed plant response rating [5, 7]: 80
- Plant response rating, Ragweed [5, 8]: 90
- Plant response rating, Ragweed [5, 9]: 95
